{"source": "BindingDB's records for doi:10.1021/jm040099a", "about": "(Johnson & Johnson Pharmaceutical, 2005)", "note": "pIC50: −log10 of the molar value."}
{"target": "Cyclin-dependent kinase/G2/mitotic-specific cyclin- 1 (Homo sapiens, UniProt P06493)", "sequence (P06493 whole entry)": "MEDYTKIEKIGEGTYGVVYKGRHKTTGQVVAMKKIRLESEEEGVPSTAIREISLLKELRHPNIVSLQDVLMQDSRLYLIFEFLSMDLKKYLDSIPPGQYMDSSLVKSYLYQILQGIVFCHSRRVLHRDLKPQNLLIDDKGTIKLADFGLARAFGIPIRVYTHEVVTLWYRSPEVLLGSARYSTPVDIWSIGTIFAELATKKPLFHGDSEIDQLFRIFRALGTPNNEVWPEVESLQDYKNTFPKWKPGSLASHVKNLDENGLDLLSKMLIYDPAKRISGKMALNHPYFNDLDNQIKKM", "sequence (P14635 whole entry, further chain)": "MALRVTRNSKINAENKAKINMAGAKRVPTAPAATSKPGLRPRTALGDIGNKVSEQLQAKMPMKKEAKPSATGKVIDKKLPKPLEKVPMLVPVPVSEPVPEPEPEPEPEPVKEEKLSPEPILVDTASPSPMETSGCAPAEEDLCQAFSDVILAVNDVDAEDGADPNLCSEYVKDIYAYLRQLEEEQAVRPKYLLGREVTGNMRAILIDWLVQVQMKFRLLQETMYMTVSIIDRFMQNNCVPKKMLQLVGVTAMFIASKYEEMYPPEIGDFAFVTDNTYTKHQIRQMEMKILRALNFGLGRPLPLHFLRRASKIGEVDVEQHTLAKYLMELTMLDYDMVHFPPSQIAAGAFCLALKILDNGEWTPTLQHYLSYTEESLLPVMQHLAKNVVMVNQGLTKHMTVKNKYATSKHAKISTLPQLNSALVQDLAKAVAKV", "assay": "Kinase Inhibition Assay", "details": "pH 8; 30 °C", "procedure": "(§1) The enzyme was assayed with a biotinylated peptide substrate and test compounds in the presence of 5 uM ATP/[gamma-33P]ATP in a streptavidin coated FlashPlate (Perkin-Elmer, Boston, MA). Inhibition of the enzymatic activity due to the compound was measured by observing a reduced amount of 33P-gamma-ATP incorporated into the immobilized peptide relative to untreated controls. Linear regression analysis of the percent of inhibition by the test compound was used to calculate IC50 values."}
{"molecule": "OCCCNc1cncc(-c2ncncc2Nc2cccc(Cl)c2)c1", "note": "[3-[[5-[5-[(3-Chlorophenyl)amino]-4-pyrimidinyl]-3-pyridinyl]amino]-1-propanol]", "pIC50": "< 5.00"}
{"target": "Vascular endothelial growth factor receptor 2 (Rattus norvegicus, UniProt O08775)", "sequence (O08775 whole entry)": "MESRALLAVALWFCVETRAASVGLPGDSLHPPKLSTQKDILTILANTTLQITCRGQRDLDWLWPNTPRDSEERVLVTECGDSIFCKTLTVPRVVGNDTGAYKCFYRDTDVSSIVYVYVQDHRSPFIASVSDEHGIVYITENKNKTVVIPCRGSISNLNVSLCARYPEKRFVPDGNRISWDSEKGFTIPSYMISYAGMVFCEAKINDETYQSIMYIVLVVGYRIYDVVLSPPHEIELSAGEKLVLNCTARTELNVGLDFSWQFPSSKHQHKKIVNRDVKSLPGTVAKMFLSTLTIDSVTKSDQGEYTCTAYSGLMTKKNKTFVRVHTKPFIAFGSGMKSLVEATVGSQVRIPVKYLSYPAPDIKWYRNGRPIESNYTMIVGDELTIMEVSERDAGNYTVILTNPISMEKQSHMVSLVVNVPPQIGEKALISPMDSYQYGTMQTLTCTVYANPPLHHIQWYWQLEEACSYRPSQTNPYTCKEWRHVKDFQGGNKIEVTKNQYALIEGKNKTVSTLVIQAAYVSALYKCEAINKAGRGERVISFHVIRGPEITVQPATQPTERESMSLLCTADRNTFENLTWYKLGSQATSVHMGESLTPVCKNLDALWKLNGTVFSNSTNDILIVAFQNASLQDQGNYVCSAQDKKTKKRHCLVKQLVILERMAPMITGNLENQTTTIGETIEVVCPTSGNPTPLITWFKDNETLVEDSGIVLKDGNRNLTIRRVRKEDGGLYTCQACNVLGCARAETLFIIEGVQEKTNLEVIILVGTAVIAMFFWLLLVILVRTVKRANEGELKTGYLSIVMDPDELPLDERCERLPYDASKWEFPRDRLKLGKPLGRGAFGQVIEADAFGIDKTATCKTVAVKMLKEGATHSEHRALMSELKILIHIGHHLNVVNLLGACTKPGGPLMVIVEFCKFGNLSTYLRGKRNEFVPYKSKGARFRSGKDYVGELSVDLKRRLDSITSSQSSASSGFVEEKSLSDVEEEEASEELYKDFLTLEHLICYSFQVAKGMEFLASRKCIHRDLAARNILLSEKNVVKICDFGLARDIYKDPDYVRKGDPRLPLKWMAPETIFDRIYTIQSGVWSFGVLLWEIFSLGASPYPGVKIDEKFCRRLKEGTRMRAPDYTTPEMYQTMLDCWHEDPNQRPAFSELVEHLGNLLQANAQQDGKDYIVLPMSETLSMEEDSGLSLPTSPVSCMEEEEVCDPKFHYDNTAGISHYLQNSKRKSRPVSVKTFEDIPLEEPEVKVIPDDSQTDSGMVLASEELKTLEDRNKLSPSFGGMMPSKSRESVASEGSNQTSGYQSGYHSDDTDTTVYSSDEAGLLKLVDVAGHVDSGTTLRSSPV", "assay": "Kinase Inhibition Assay", "details": "not given", "procedure": "as §1"}
{"molecule": "OCCCNc1cncc(-c2ncc(Nc3cccc(Cl)c3)cn2)c1", "note": "[3-[(5-{5-[(3-chlorophenyl)amino]pyrimidin-2-yl}pyridin-3-yl)amino]propan-1-ol]", "pIC50": "< 5.00"}
{"molecule": "OCCCNc1cncc(-c2cc(Nc3cccc(Cl)c3)ncn2)c1", "note": "[3-[(5-{6-[(3-chlorophenyl)amino]pyrimidin-4-yl}pyridin-3-yl)amino]propan-1-ol]", "pIC50": "< 5.00"}
{"molecule": "OCCCNc1cccc(-c2cncc(Nc3cccc(Cl)c3)n2)n1", "note": "[3-[(6-{6-[(3-chlorophenyl)amino]pyrazin-2-yl}pyridin-2-yl)amino]propan-1-ol]", "pIC50": "< 5.00"}
{"molecule": "OCCCNc1cncc(-c2ncncc2Nc2cccc(Cl)c2)c1", "note": "[3-[[5-[5-[(3-Chlorophenyl)amino]-4-pyrimidinyl]-3-pyridinyl]amino]-1-propanol]", "pIC50": "< 5.00"}
{"molecule": "OCCCNc1cncc(-c2cnc(Nc3cccc(Cl)c3)cn2)c1", "note": "[3-[[5-[5-[(3-chlorophenyl)amino]pyrazinyl]-3-pyridinyl]amino]-1-propanol]", "pIC50": "< 5.00"}
{"molecule": "OCCCNc1ccc(-c2cncc(Nc3cccc(Cl)c3)n2)nc1", "note": "[3-{[6-[6-((3-Chlorophenyl)amino)pyrazin-2-yl]pyridin-3-yl]amino}propan-1-ol]", "pIC50": "< 5.00"}
